One may read the melting point as the temperature of the solid-liquid transition.

The values below come from patent US8551999B2, “Heterocyclic compound and pharmaceutical composition thereof” (Otsuka Pharmaceutical Co., Ltd., priority 2007, dated 2013).

In the case of `Br.COc1ccc(CN2CCN(C(=O)c3cc4cc(Oc5ccc(NC(=O)c6ccc(C(F)(F)F)cc6C)cn5)ccc4n3C)CC2)cc1` [Example 14, N-(6-{2-[4-(4-Methoxybenzyl)piperazine-1-carbonyl]-1-methyl-1H-indol-5-yloxy}pyridin-3-yl)-2-methyl-4-trifluoromethylbenzamide hydrobromide], the melting point was in the range of 249 to 251 °C.
Molecule `COc1ccc(CN2CCN(C(=O)c3cc4cc(Oc5ccc(N(C)C(=O)c6ccc(C(F)(F)F)cc6Cl)cn5)ccc4n3C)CC2)cc1.O=C(O)C(=O)O` [Example 16, 2-Chloro-N-(6-{2-[4-(4-methoxybenzyl)piperazine-1-carbonyl]-1-methyl-1H-indol-5-yloxy}pyridin-3-yl)-N-methyl-4-trifluoromethyl-benzamide oxalate] displayed a melting point of 163 to 165 °C.
Molecule `Br.COc1ccc(CN2CCN(C(=O)c3cc4cc(Oc5ccc(NC(=O)c6ccc(OC(F)(F)F)cc6)cn5)ccc4n3C)CC2)cc1` [Example 17, N-(6-{2-[4-(4-Methoxybenzyl)piperazine-1-carbonyl]-1-methyl-1H-indol-5-yloxy}pyridin-3-yl)-4-trifluoromethoxybenzamide hydrobromide] registered a melting point of 226 to 227 °C.
With `COc1ccc(CN2CCN(C(=O)c3cc4cc(Oc5ccc(N(C)C(=O)c6ccc(OC(F)(F)F)cc6)cn5)ccc4n3C)CC2)cc1.O=C(O)/C=C\C(=O)O` [Example 18, N-(6-{2-[4-(4-Methoxybenzyl)piperazine-1-carbonyl]-1-methyl-1H-indol-5-yloxy}pyridin-3-yl)-N-methyl-4-trifluoromethoxybenzamide maleate], the melting point lay in the range of 147 to 148 °C.
Molecule `Br.COc1ccc(CN2CCN(C(=O)c3cc4cc(Oc5ccc(NC(=O)c6ccc(C(F)(F)F)c(C)c6)cn5)ccc4n3C)CC2)cc1` [Example 19, N-(6-{2-[4-(4-Methoxybenzyl)piperazine-1-carbonyl]-1-methyl-1H-indol-5-yloxy}pyridin-3-yl)-3-methyl-4-trifluoromethylbenzamide hydrobromide] came in with a melting point of 188 to 191 °C.
With `Br.COc1ccc(CN2CCN(C(=O)c3cc4cc(Oc5ccc(N(C)C(=O)c6ccc(C(F)(F)F)c(C)c6)cn5)ccc4n3C)CC2)cc1` [Example 20, N-(6-{2-[4-(4-Methoxybenzyl)piperazine-1-carbonyl]-1-methyl-1H-indol-5-yloxy}pyridin-3-yl)-3,N-dimethyl-4-trifluoromethyl-benzamide hydrobromide] the figure was 199 to 202 °C.
In the case of `COc1ccc(CN2CCN(C(=O)c3cc4cc(Oc5ccc(CNC(=O)c6ccc(C(F)(F)F)cn6)cn5)ccc4n3C)CC2)cc1.O=C(O)C(=O)O.O=C(O)C(=O)O` [Example 21, 5-Trifluoromethylpyridine-2-carboxylic acid (6-{2-[4-(4-methoxy-benzyl)piperazine-1-carbonyl]-1-methyl-1H-indol-5-yloxy}pyridin-3-yl)methylamide dioxalate], the melting point was in the range of 152 to 154 °C.
`Br.Cc1ccc(C(=O)N(C)c2ccc(Oc3ccc4cc(C(=O)N5CCN(Cc6ccc(OCC(F)(F)F)cc6)CC5)n(C)c4c3)nc2)cc1` [Example 23, 4,N-Dimethyl-N-[6-(1-methyl-2-{4-[4-(2,2,2-trifluoroethoxy)-benzyl]piperazine-1-carbonyl}-1H-indol-6-yloxy)pyridin-3-yl]-benzamide hydrobromide] had a melting point of 226.1 to 227.3 °C.
The figure for `Br.CCN(C(=O)c1ccc(C(F)(F)F)cc1)c1ccc(Oc2ccc3cc(C(=O)N4CCN(Cc5ccc(OCC(F)(F)F)cc5)CC4)n(C)c3c2)nc1` [Example 26, N-Ethyl-N-[6-(1-methyl-2-{4-[4-(2,2,2-trifluoroethoxy)benzyl]-piperazine-1-carbonyl}-1H-indol-6-yloxy)pyridin-3-yl]-4-tri-fluoromethylbenzamide hydrobromide] is 189.8 to 192.8 °C.
Molecule `Br.CN(c1ccc(Oc2ccc3cc(C(=O)N4CCN(Cc5ccc(OCC(F)(F)F)cc5)CC4)n(C)c3c2)nc1)S(=O)(=O)c1ccccc1` [Example 30, N-Methyl-N-[6-(1-methyl-2-{4-[4-(2,2,2-trifluoroethoxy)benzyl]-piperazine-1-carbonyl}-1H-indol-6-yloxy)pyridin-3-yl]benzene-sulfonamide hydrobromide] showed a melting point of 234.6 to 235.2 °C.
The figure for `CCCOc1ccc(CN2CCN(C(=O)c3cc4ccc(Oc5ccc(N(C)S(=O)(=O)c6ccc(C)cc6)cn5)cc4n3C)CC2)cc1` [Example 32, 4,N-Dimethyl-N-(6-{1-methyl-2-[4-(4-propoxybenzyl)piperazine-1-carbonyl]-1H-indol-6-yloxy}pyridin-3-yl)benzenesulfonamide] is 135.9 to 136.8 °C; for `CCCOc1ccc(CN2CCN(C(=O)c3cc4ccc(Oc5ccc(N(C)S(=O)(=O)c6ccc(Cl)c(Cl)c6)cn5)cc4n3C)CC2)cc1` [Example 33, 3,4-Dichloro-N-methyl-N-(6-{1-methyl-2-[4-(4-propoxybenzyl)-piperazine-1-carbonyl]-1H-indol-6-yloxy}pyridin-3-yl)-benzenesulfonamide] it is 231.7 to 235 °C (dec.); for `CN(c1ccc(Oc2ccc3cc(C(=O)N4CCN(Cc5ccc(OCC(F)(F)F)cc5)CC4)[nH]c3c2)nc1)S(=O)(=O)c1ccc(C(F)(F)F)cc1` [Example 39, N-Methyl-N-[6-(2-{4-[4-(2,2,2-trifluoroethoxy)benzyl]piperazine-1-carbonyl}-1H-indol-6-yloxy)pyridin-3-yl]-4-trifluoromethyl-benzenesulfonamide] it is 200.1 to 200.2 °C.
Regarding `CC(C)Oc1ccc(CN2CCN(C(=O)c3cc4ccc(Oc5ncc(N(C)S(=O)(=O)c6ccc(C(F)(F)F)cc6)cn5)cc4n3C)CC2)cc1` [Example 42, N-(2-{2-[4-(4-Isopropoxybenzyl)piperazine-1-carbonyl]-1-methyl-1H-indol-6-yloxy}pyrimidin-5-yl)-N-methyl-4-trifluoromethyl-benzenesulfonamide], the melting point was 186.6 to 187.3 °C.
The figure for `Cc1ccc(S(=O)(=O)N(C)c2cnc(Oc3ccc4cc(C(=O)N5CCN(Cc6ccc(OC(C)C)cc6)CC5)n(C)c4c3)nc2)cc1` [Example 44, N-(2-{2-[4-(4-Isopropoxybenzyl)piperazine-1-carbonyl]-1-methyl-1H-indol-6-yloxy}pyrimidin-5-yl)-4,N-dimethylbenzenesulfonamide] is 154.3 to 155.1 °C; for `CC(C)Oc1ccc(CN2CCN(C(=O)c3cc4ccc(Oc5ncc(N(C)S(C)(=O)=O)cn5)cc4n3C)CC2)cc1` [Example 45, N-(2-{2-[4-(4-Isopropoxybenzyl)piperazine-1-carbonyl]-1-methyl-1H-indol-6-yloxy}pyrimidin-5-yl)-N-methylmethanesulfonamide] it is 134.3 to 135.6 °C; for `Br.Cc1cc(Oc2ccc3cc(C(=O)N4CCN(Cc5ccc(OCC(F)(F)F)cc5)CC4)n(C)c3c2)ncc1NC(=O)c1ccc(C(F)(F)F)cc1` [Example 46, N-[4-Methyl-6-(1-methyl-2-{4-[4-(2,2,2-trifluoroethoxy)benzyl]-piperazine-1-carbonyl}-1H-indol-6-yloxy)pyridin-3-yl]-4-tri-fluoromethylbenzamide hydrobromide] it is 222.4 to 224.6 °C.
With `Br.Cc1cc(Oc2ccc3cc(C(=O)N4CCN(Cc5ccc(OCC(F)(F)F)cc5)CC4)n(C)c3c2)ncc1N(C)C(=O)c1ccc(C(F)(F)F)cc1` [Example 47, N-Methyl-N-[4-methyl-6-(1-methyl-2-{4-[4-(2,2,2-trifluoroethoxy)-benzyl]piperazine-1-carbonyl}-1H-indol-6-yloxy)pyridin-3-yl]-4-trifluoromethylbenzamide hydrobromide] the figure was 220 to 222.5 °C; with `O=C(CN1CCc2cc(Oc3ccc(NS(=O)(=O)c4ccc(Cl)c(Cl)c4)cn3)ccc21)N1CCN(Cc2ccc3c(c2)OCO3)CC1` [Example 64, N-(6-{1-[2-(4-Benzo[1,3]dioxol-5-ylmethylpiperazin-1-yl)-2-oxo-ethyl]-2,3-dihydro-1H-indol-5-yloxy}pyridin-3-yl)-3,4-dichloro-benzenesulfonamide], 152 to 153 °C.
With `Br.Cn1c(C(=O)N2CCN(Cc3ccc4c(c3)OCO4)CC2)cc2cc(Oc3ccc(NS(=O)(=O)c4ccc(C(F)(F)F)cc4)cn3)ccc21` [Example 65, N-{6-[2-(4-Benzo[1,3]dioxol-5-ylmethylpiperazine-1-carbonyl)-1-methyl-1H-indol-5-yloxy]pyridin-3-yl}-4-trifluoromethylbenzene-sulfonamide hydrobromide] the figure was 210 to 212 °C.
For the molecule `CN(c1ccc(Oc2ccc3cc(C(=O)N4CCN(Cc5ccc(OCC(F)(F)F)cc5)CC4)n(C)c3c2)nc1)S(=O)(=O)c1ccc(Cl)c(Cl)c1` [Example 68, 3,4-Dichloro-N-methyl-N-[6-(1-methyl-2-{4-[4-(2,2,2-trifluoro-ethoxy)benzyl]piperazine-1-carbonyl}-1H-indol-6-yloxy)pyridin-3-yl]benzenesulfonamide], the melting point lay in the range of 165.9 to 167.2 °C.
Take `Cc1ccc(S(=O)(=O)Nc2ccc(Oc3ccc4cc(C(=O)N5CCN(Cc6ccc(OCC(F)(F)F)cc6)CC5)n(C)c4c3)nc2)cc1` [Example 71, 4-Methyl-N-[6-(1-methyl-2-{4-[4-(2,2,2-trifluoroethoxy)benzyl]-piperazine-1-carbonyl}-1H-indol-6-yloxy)pyridin-3-yl]benzene-sulfonamide]: the melting point lay within 198.3 to 200.3 °C.
`Br.Cn1c(C(=O)N2CCN(Cc3ccc(OCC(F)(F)F)cc3)CC2)cc2ccc(Oc3ccc(NS(C)(=O)=O)cn3)cc21` [Example 76, N-[6-(1-Methyl-2-{4-[4-(2,2,2-trifluoroethoxy)benzyl]piperazine-1-carbonyl}-1H-indol-6-yloxy)pyridin-3-yl]methanesulfonamide hydrobromide] yielded a melting point of 237.8 to 240.1 °C.
As for `Br.Cc1cc(Oc2ccc3cc(C(=O)N4CCN(Cc5ccc(OCC(F)(F)F)cc5)CC4)n(C)c3c2)ncc1N(C)S(C)(=O)=O` [Example 78, N-Methyl-N-[4-methyl-6-(1-methyl-2-{4-[4-(2,2,2-trifluoroethoxy)-benzyl]piperazine-1-carbonyl}-1H-indol-6-yloxy)pyridin-3-yl]-methanesulfonamide hydrobromide], the melting point is 235.8 to 237.8 °C.
